Literature values, collected in patent US7419669B2, “Peptide epitopes common to antigens of the same multigene family” (Institut Gustave Roussy, priority 2002, dated 2008).

Assays:
tumor cells = settings: MICONNET et al., 2000; cited from earlier work
[1] = biological target: HLA-B*3701 allele of MHC-I (Homo sapiens, UniProt P01889, A329T/A93T/A95T/C349S/D138N/D201E/D98Y/E176V/E187T/E204Q/E69T/G107R/H137Y/K202T/L119I/N104T/N87E/Q94N/R106L/R155S/R180D/S101D/S121R/V306I/Y123S/Y140F/Y33H/Y91S); settings: TANZARELLA et al., 1999; cited from earlier work

Sequence | processing of the epitope by tumor cells (tumor cells) | binding to HLA-B*3701 [1]
FLWGPRALV | not efficiently processed by tumor cells | 
REPVTKAEML (listed as Homo sapiens) |  | binds to the HLA-B*3701 allele of MHC-I
